Experimental data as given in patent EP0308983A2, “NMR imaging with Mn(II) coordination compositions” (priority 1987, dated 1989).
Where “and” joins values, the source holds several entries; their conditions need not be identical. Equal values may be shown once.

assay: Paramagnetic relaxation properties in water at 10 MHz (0.15T), RADX spin analyzer; format: physicochemical; details: 0.989 mM solution in water, 10 MHz (0.15T), 37°C, triplicate, mean +/- SD
Procedure: The paramagnetic relaxation properties of [manganese(II)·(H₂O)₂·(L-alanine)₂]⁺²(Cl₂)⁻² in water were measured at 10 MHz (0.15T) with a spin analyzer (RADX; Houston, TX) at 37°C. After thermal equilibrium, the spin-lattice (T₁) and spin-spin (T₂) relaxation values were measured in triplicate.
The paramagnetic relaxation of the title compound in water was measured at 10 MHz (0.15T) with a spin analyzer (RADX; Houston, TX). After thermal equilibrium, the spin-lattice (T₁) and spin-spin (T₂) relaxation values were measured.
Relaxivity was measured at 10 MHz (0.15T) as described in Example 10.
The relaxivity of the title compound was performed at 0.15 T (10 MHz) with a RADX Spin Analyzer (Houston, TX) at 37°C.

| spin-lattice (T₁) relaxation value [ms] | spin-spin (T₂) relaxation value [ms] | Compound |
| --- | --- | --- |
| 111 ± 2 | 27 ± 1 | N[C@@H](CO)C(=O)O.N[C@@H](CO)C(=O)O.O.O.[Cl-].[Cl-].[Mn+2] [Manganese(II)·(H₂O)₂·(L-serine)₂]⁺²(Cl₂)⁻²] |

same assay, conditions: 0.99 mM solution in water, 10 MHz (0.15T), 37°C, triplicate, mean +/- SD

| spin-lattice (T₁) relaxation value [ms] | spin-spin (T₂) relaxation value [ms] | Compound |
| --- | --- | --- |
| 109 ± 7 | 28 ± 1 | CC[C@H](C)[C@H](N)C(=O)O.CC[C@H](C)[C@H](N)C(=O)O.O.O.[Cl-].[Cl-].[Mn+2] [[Manganese(II)·(H₂O)₂·(L-isoleucine)₂]⁺²(Cl₂)⁻²] |

same assay, conditions: in water, 10 MHz (0.15T); calculated from T₁ and concentration

| millimolar relaxivity for T₁ [mM⁻¹ s⁻¹] | Compound |
| --- | --- |
| 9.19 | N[C@@H](CO)C(=O)O.N[C@@H](CO)C(=O)O.O.O.[Cl-].[Cl-].[Mn+2] [Manganese(II)·(H₂O)₂·(L-serine)₂]⁺²(Cl₂)⁻²] |
| 9.66 | CC[C@H](C)[C@H](N)C(=O)O.CC[C@H](C)[C@H](N)C(=O)O.O.O.[Cl-].[Cl-].[Mn+2] [[Manganese(II)·(H₂O)₂·(L-isoleucine)₂]⁺²(Cl₂)⁻²] |

same assay, conditions: in water, 10 MHz (0.15T); calculated from T₂ and concentration

| millimolar relaxivity for T₂ [mM⁻¹ s⁻¹] | Compound |
| --- | --- |
| 37.8 | N[C@@H](CO)C(=O)O.N[C@@H](CO)C(=O)O.O.O.[Cl-].[Cl-].[Mn+2] [Manganese(II)·(H₂O)₂·(L-serine)₂]⁺²(Cl₂)⁻²] |
| 37.6 | CC[C@H](C)[C@H](N)C(=O)O.CC[C@H](C)[C@H](N)C(=O)O.O.O.[Cl-].[Cl-].[Mn+2] [[Manganese(II)·(H₂O)₂·(L-isoleucine)₂]⁺²(Cl₂)⁻²] |

assay: Paramagnetic relaxation properties in human plasma at 37°C; format: physicochemical; details: 90 µM final concentration, 37°C

| T₂ value [ms] | Compound |
| --- | --- |
| 182 ± 5 | CC[C@H](C)[C@H](N)C(=O)O.CC[C@H](C)[C@H](N)C(=O)O.O.O.[Cl-].[Cl-].[Mn+2] [[Manganese(II)·(H₂O)₂·(L-isoleucine)₂]⁺²(Cl₂)⁻²] |

same assay, conditions: 90 µM final concentration, 37°C, triplicate

| T₁ value [ms] | Compound |
| --- | --- |
| 235 ± 7 | CC[C@H](C)[C@H](N)C(=O)O.CC[C@H](C)[C@H](N)C(=O)O.O.O.[Cl-].[Cl-].[Mn+2] [[Manganese(II)·(H₂O)₂·(L-isoleucine)₂]⁺²(Cl₂)⁻²] |

same assay, conditions: 93 µM final concentration, 37°C

| T₂ value [ms] | Compound |
| --- | --- |
| 189 ± 6 | N[C@@H](CO)C(=O)O.N[C@@H](CO)C(=O)O.O.O.[Cl-].[Cl-].[Mn+2] [Manganese(II)·(H₂O)₂·(L-serine)₂]⁺²(Cl₂)⁻²] |

same assay, conditions: 93 µM final concentration, 37°C, triplicate

| T₁ value [ms] | Compound |
| --- | --- |
| 238 ± 9 | N[C@@H](CO)C(=O)O.N[C@@H](CO)C(=O)O.O.O.[Cl-].[Cl-].[Mn+2] [Manganese(II)·(H₂O)₂·(L-serine)₂]⁺²(Cl₂)⁻²] |

same assay, conditions: 37°C

| R₁ [mM⁻¹ s⁻¹] | R₂ [mM⁻¹ s⁻¹] | Compound |
| --- | --- | --- |
| 45.2 | 56.9 | N[C@@H](CO)C(=O)O.N[C@@H](CO)C(=O)O.O.O.[Cl-].[Cl-].[Mn+2] [Manganese(II)·(H₂O)₂·(L-serine)₂]⁺²(Cl₂)⁻²] |
| 47.3 | 61.1 | CC[C@H](C)[C@H](N)C(=O)O.CC[C@H](C)[C@H](N)C(=O)O.O.O.[Cl-].[Cl-].[Mn+2] [[Manganese(II)·(H₂O)₂·(L-isoleucine)₂]⁺²(Cl₂)⁻²] |

same assay, conditions: 37°C, repeat measurement 80 minutes later

| T₁ changed by (repeat measurement) [%] | T₂ changed by (repeat measurement) [%] | Compound |
| --- | --- | --- |
| 3 | 2 | N[C@@H](CO)C(=O)O.N[C@@H](CO)C(=O)O.O.O.[Cl-].[Cl-].[Mn+2] [Manganese(II)·(H₂O)₂·(L-serine)₂]⁺²(Cl₂)⁻²] |
| 2 | 8 | CC[C@H](C)[C@H](N)C(=O)O.CC[C@H](C)[C@H](N)C(=O)O.O.O.[Cl-].[Cl-].[Mn+2] [[Manganese(II)·(H₂O)₂·(L-isoleucine)₂]⁺²(Cl₂)⁻²] |

same assay, conditions: versus GdDTPA

| T₂ relaxivity in plasma, fold greater than GdDTPA [fold] | Compound |
| --- | --- |
| 11.9 | N[C@@H](CO)C(=O)O.N[C@@H](CO)C(=O)O.O.O.[Cl-].[Cl-].[Mn+2] [Manganese(II)·(H₂O)₂·(L-serine)₂]⁺²(Cl₂)⁻²] |
| 12.7 | CC[C@H](C)[C@H](N)C(=O)O.CC[C@H](C)[C@H](N)C(=O)O.O.O.[Cl-].[Cl-].[Mn+2] [[Manganese(II)·(H₂O)₂·(L-isoleucine)₂]⁺²(Cl₂)⁻²] |

same assay, conditions: versus gadolinium diethylenetriaminepentaacetic acid chelate (GdDTPA)

| T₁ relaxivity in plasma, fold greater than GdDTPA [fold] | Compound |
| --- | --- |
| 9.4 | N[C@@H](CO)C(=O)O.N[C@@H](CO)C(=O)O.O.O.[Cl-].[Cl-].[Mn+2] [Manganese(II)·(H₂O)₂·(L-serine)₂]⁺²(Cl₂)⁻²] |
| 9.9 | CC[C@H](C)[C@H](N)C(=O)O.CC[C@H](C)[C@H](N)C(=O)O.O.O.[Cl-].[Cl-].[Mn+2] [[Manganese(II)·(H₂O)₂·(L-isoleucine)₂]⁺²(Cl₂)⁻²] |

assay: Plasma clearance: plasma T₁ and T₂ times after injection; format: in vivo; details: rabbit, 0.1 mmole/kg
Procedure: A dose of 0.1 mmole/kg of GdDTPA was injected into a rabbit and blood samples were drawn at 10 min intervals for 50 min. The blood was centrifuged, and the plasma T₁ and T₂ times were measured at 0.15 T with a RADX PROTON SPIN ANALYZER (Houston, TX).

| Compound | time for which the plasma T₁ was maintained below 300 [min] |
| --- | --- |
| O=C([O-])CN(CCN(CC(=O)[O-])CC(=O)O)CCN(CC(=O)[O-])CC(=O)O.[Gd+3] [GdDTPA, gadolinium diethylenetriaminepentaacetic acid chelate, reference compound] | 10 |

same assay, conditions: rabbit, 0.1 mmole/kg, 0 min (baseline), 0.15 T

| Compound | plasma T₁ [ms] | plasma T₂ [ms] |
| --- | --- | --- |
| O=C([O-])CN(CCN(CC(=O)[O-])CC(=O)O)CCN(CC(=O)[O-])CC(=O)O.[Gd+3] [GdDTPA, gadolinium diethylenetriaminepentaacetic acid chelate, reference compound] | 1380 | 588 |

same assay, conditions: rabbit, 0.1 mmole/kg, 10 min, 0.15 T

| Compound | plasma T₁ | plasma T₂ [ms] |
| --- | --- | --- |
| O=C([O-])CN(CCN(CC(=O)[O-])CC(=O)O)CCN(CC(=O)[O-])CC(=O)O.[Gd+3] [GdDTPA, gadolinium diethylenetriaminepentaacetic acid chelate, reference compound] | 259 ms and 269 ms | 245 |

same assay, conditions: rabbit, 0.1 mmole/kg, 20 min, 0.15 T

| Compound | plasma T₁ [ms] | plasma T₂ [ms] |
| --- | --- | --- |
| O=C([O-])CN(CCN(CC(=O)[O-])CC(=O)O)CCN(CC(=O)[O-])CC(=O)O.[Gd+3] [GdDTPA, gadolinium diethylenetriaminepentaacetic acid chelate, reference compound] | 349 | 287 |

same assay, conditions: rabbit, 0.1 mmole/kg, 30 min, 0.15 T

| Compound | plasma T₁ [ms] | plasma T₂ [ms] |
| --- | --- | --- |
| O=C([O-])CN(CCN(CC(=O)[O-])CC(=O)O)CCN(CC(=O)[O-])CC(=O)O.[Gd+3] [GdDTPA, gadolinium diethylenetriaminepentaacetic acid chelate, reference compound] | 348 | 283 |

same assay, conditions: rabbit, 0.1 mmole/kg, 40 min, 0.15 T

| Compound | plasma T₁ [ms] | plasma T₂ [ms] |
| --- | --- | --- |
| O=C([O-])CN(CCN(CC(=O)[O-])CC(=O)O)CCN(CC(=O)[O-])CC(=O)O.[Gd+3] [GdDTPA, gadolinium diethylenetriaminepentaacetic acid chelate, reference compound] | 352 | 270 |

same assay, conditions: rabbit, 0.1 mmole/kg, 50 min, 0.15 T

| Compound | plasma T₁ [ms] | plasma T₂ [ms] |
| --- | --- | --- |
| O=C([O-])CN(CCN(CC(=O)[O-])CC(=O)O)CCN(CC(=O)[O-])CC(=O)O.[Gd+3] [GdDTPA, gadolinium diethylenetriaminepentaacetic acid chelate, reference compound] | 340 | 298 |
